According to patent publication US20110201603A1, “Novel Acylaminobenzamide Derivatives” (Bayer CropScience AG, priority 2008, published 2011):

Tests used:
[1] = tested on: cucurbit leaf beetle (Aulacophora femoralis); experiment: Test against cucurbit leaf beetle (Aulacophora femoralis), leaf dip; type: in vivo; details: active compound concentration of 100 ppm; second-instar larvae on cucumber leaves; after 7 days
Experimental: (§1) Unless not mentioned otherwise, the test solutions were prepared as follows:
(§2) Containing as solvent: Dimethylformamide, 3 parts by weight; and as emulsifier: Polyoxyethylene alkyl phenyl ether, 1 part by weight
(§3) To prepare the test solution, 1 part by weight of an active compound is mixed with the above-mentioned amount of solvent containing the above-mentioned amount of emulsifier, and the mixture is diluted with water to the desired concentration.
Cucumber leaves were immersed in the test solution at the appropriate concentration, and the leaves were dried in air. The leaves were then placed in a plastic cup containing sterilized black soil, and five second-instar larvae of cucurbit leaf beetle were released therein. The plastic cup was placed in a temperature-controlled chamber at 25° C. After 7 days, the number of dead larvae was counted, and thus the insecticidal activity was calculated. An insecticidal activity of 100% means that all beetles were killed, whereas an insecticidal activity of 0% means that no beetle was killed.

[2] = tested on: tobacco cutworm (Spodoptera litura) larvae; experiment: Test against tobacco cutworm (Spodoptera litura) larvae, leaf dip; type: in vivo; details: active compound concentration of 100 ppm; third-instar larvae on sweet potato leaves; after 7 days
Experimental: as §1, §2, §3
The leaves of sweet potato were immersed in the test solution at the appropriate concentration, and the leaves were dried in air. The leaves were then placed in a petri dish having a diameter of 9 cm, and ten third-instar larvae of tobacco cutworm were released therein. The petri dish was placed in a temperature-controlled chamber at 25° C. After 2 days and 4 days sweet potato leaves were additionally added. After 7 days, the number of dead larvae was counted to calculate the insecticidal activity. An insecticidal activity of 100% means that all larvae were killed, whereas an insecticidal activity of 0% means that no larva was killed. In the current test, the results of two petri dishes for each partition were averaged.

| Structure (SMILES) | insecticidal activity [1] [%] | insecticidal activity [2] [%] |
| --- | --- | --- |
| CCc1cc(C(n2cc(C(F)(F)F)cn2)(C(F)(F)F)C(F)(F)F)cc(C)c1NC(=O)c1cccc(NC(=O)c2cccnc2Cl)c1 [2-105, 2-chloro-N-{3-[(2-ethyl-4-{1,1,1,3,3,3-hexafluoro-2-[4-(trifluoromethyl)-1H-pyrazol-1-yl]propan-2-yl}-6-methylphenyl)carbamoyl]-phenyl}pyridine-3-carboxamide] | 100 | 100 |
| CCc1cc(C(Oc2cccnc2)(C(F)(F)F)C(F)(F)F)cc(C)c1NC(=O)c1cccc(NC(=O)c2cccnc2Cl)c1 [1-171] | 100 | 100 |
| Cc1cc(C(Oc2ccc(Cl)nc2)(C(F)(F)F)C(F)(F)F)cc(C)c1NC(=O)c1cccc(NC(=O)c2cccnc2Cl)c1 [1-182] | 100 | 100 |
| Cc1cc(C(n2nccn2)(C(F)(F)F)C(F)(F)F)cc(C)c1NC(=O)c1cccc(NC(=O)c2cccnc2Cl)c1 [2-147] | 100 | 100 |
| O=C(Nc1c(Br)cc(C(c2ccccc2)(n2ccc(C(F)(F)F)n2)C(F)(F)F)cc1Br)c1cccc(NC(=O)c2cccnc2Cl)c1 (single isomer, unassigned) [2-100] | 100 | – |
| Cc1cc(C(n2cc(I)c(I)n2)(C(F)(F)F)C(F)(F)F)cc(C)c1NC(=O)c1cccc(NC(=O)c2cccnc2Cl)c1 [2-116] | 100 | 100 |
| Cc1cc(C(Oc2ccc(Br)cc2)(C(F)(F)F)C(F)(F)F)cc(C)c1NC(=O)c1cccc(NC(=O)c2cccnc2Cl)c1 [1-166] | 100 | 100 |
| O=C(Nc1c(Cl)cc(C(n2cc(Cl)cn2)(C(F)(F)F)C(F)(F)F)cc1Cl)c1cccc(NC(=O)c2ccccc2F)c1 [2-32] | 100 | 100 |
| O=C(Nc1c(I)cc(C(n2cc(Cl)cn2)(C(F)(F)F)C(F)(F)F)cc1I)c1cccc(NC(=O)c2cccnc2Cl)c1 [2-63] | 100 | 100 |
| CCc1cc(C(n2cnc(Cl)n2)(C(F)(F)F)C(F)(F)F)cc(C)c1NC(=O)c1cccc(NC(=O)c2cccnc2Cl)c1 [2-183] | 100 | 100 |
| Cc1cc(C(n2ccc(Cl)n2)(C(F)(F)F)C(F)(F)F)cc(C)c1NC(=O)c1cccc(NC(=O)c2cccnc2Cl)c1 [2-7] | 100 | – |
| Cc1cc(C(n2cc(Cl)cn2)(C(F)(F)F)C(F)(F)F)cc(Br)c1NC(=O)c1cccc(NC(=O)c2c(F)cccc2F)c1 [2-41] | 100 | 100 |
| CC#CCOC(c1cc(I)c(NC(=O)c2cccc(NC(=O)c3ccc(F)cc3)c2)c(I)c1)(C(F)(F)F)C(F)(F)F [1-84] | 100 | 100 |
| CCc1cc(C(n2cc(Br)cn2)(C(F)(F)F)C(F)(F)F)cc(C)c1NC(=O)c1cccc(NC(=O)c2cccnc2Cl)c1 [2-87] | 100 | 100 |
| CCc1cc(C(Oc2ccc(Br)cc2)(C(F)(F)F)C(F)(F)F)cc(CC)c1NC(=O)c1cccc(NC(=O)c2cccnc2Cl)c1 [1-177] | 100 | 100 |
| CCc1cc(C(Oc2ccc(I)cc2)(C(F)(F)F)C(F)(F)F)cc(C)c1NC(=O)c1cccc(NC(=O)c2cccnc2Cl)c1 [1-152] | 100 | 100 |
| CCc1cc(C(Oc2ccccc2)(C(F)(F)F)C(F)(F)F)cc(C)c1NC(=O)c1cccc(NC(=O)c2cccnc2Cl)c1 [1-105] | 100 | – |
| Cc1cc(C(n2c(Br)nc(Br)c2Br)(C(F)(F)F)C(F)(F)F)cc(C)c1NC(=O)c1cccc(NC(=O)c2cccnc2Cl)c1 [2-144] | 100 | 100 |
| CCc1cc(C(OCC(F)(F)F)(C(F)(F)F)C(F)(F)F)cc(C)c1NC(=O)c1cccc(NC(=O)c2cccnc2Cl)c1 [1-146] | 100 | 100 |
| CCc1cc(C(N2CC=CCC2)(C(F)(F)F)C(F)(F)F)cc(C)c1NC(=O)c1cccc(NC(=O)c2cccnc2Cl)c1 [2-180] | 100 | 100 |
| CCc1cc(C(Oc2cccc(Cl)c2)(C(F)(F)F)C(F)(F)F)cc(C)c1NC(=O)c1cccc(NC(=O)c2cccnc2Cl)c1 [1-108] | 100 | 100 |
| CCc1cc(C(n2nc(Br)c(Br)c2Br)(C(F)(F)F)C(F)(F)F)cc(C)c1NC(=O)c1cccc(NC(=O)c2cccnc2Cl)c1 [2-134] | 100 | 100 |
| Cc1cc(C(n2cc(Cl)cn2)(C(F)(F)F)C(F)(F)F)cc(Br)c1NC(=O)c1cccc(NC(=O)c2ccccc2F)c1 [2-31] | 100 | 100 |

| Structure (SMILES) | insecticidal activity [1] [%] | insecticidal activity [2] [%] |
| --- | --- | --- |
| Cc1cc(C(n2cccc2Br)(C(F)(F)F)C(F)(F)F)cc(C)c1NC(=O)c1cccc(NC(=O)c2cccnc2Cl)c1 [2-2] | 100 | 100 |
| Cc1cc(C(n2cc(Cl)cn2)(C(F)(F)F)C(F)(F)F)cc(Br)c1NC(=O)c1cccc(NC(=O)c2cccnc2Cl)c1 [2-59] | 100 | 100 |
| Cc1cc(C(n2cnc(Cl)c2Cl)(C(F)(F)F)C(F)(F)F)cc(C)c1NC(=O)c1cccc(NC(=O)c2cccnc2Cl)c1 [2-143] | 100 | 100 |
| CCc1cc(C(Oc2ccc(Br)cc2)(C(F)(F)F)C(F)(F)F)cc(C)c1NC(=O)c1cccc(NC(=O)c2cccnc2Cl)c1 [1-129] | 100 | 100 |
| CCc1cc(C(ON=Cc2ccc(Cl)cc2)(C(F)(F)F)C(F)(F)F)cc(C)c1NC(=O)c1cccc(NC(=O)c2cccnc2Cl)c1 [1-138] | 100 | 100 |
| Cc1cc(C(Oc2ccc(Cl)cc2)(C(F)(F)F)C(F)(F)F)cc(C)c1NC(=O)c1cccc(NC(=O)c2cccnc2Cl)c1 [1-160] | 100 | 100 |
| Cc1cc(C(n2cnc(C(F)(F)F)n2)(C(F)(F)F)C(F)(F)F)cc(C)c1NC(=O)c1cccc(NC(=O)c2cccnc2Cl)c1 [2-153] | 100 | 100 |
| Cc1cc(C(n2ccc(C(F)(F)C(F)(F)F)n2)(C(F)(F)F)C(F)(F)F)cc(C)c1NC(=O)c1cccc(NC(=O)c2cccnc2Cl)c1 [2-107] | – | 100 |
| CCc1cc(C(n2cc(Cl)cn2)(C(F)(F)F)C(F)(F)F)cc(C)c1NC(=O)c1cccc(NC(=O)c2cccnc2F)c1 [2-44] | 100 | 100 |
| Cc1cc(C(n2ccc(Br)n2)(C(F)(F)F)C(F)(F)F)cc(C)c1NC(=O)c1cccc(NC(=O)c2cccnc2Cl)c1 [2-76, N-[3-({4-[2-(3-bromo-1H-pyrazol-1-yl)-1,1,1,3,3,3-hexafluoropropan-2-yl]-2,6-dimethylphenyl}carbamoyl)phenyl]-2-chloropyridine-3-carboxamide] | – | 100 |
| CCc1cc(C(Oc2ccc(Cl)cc2)(C(F)(F)F)C(F)(F)F)cc(CC)c1NC(=O)c1cccc(NC(=O)c2cccnc2Cl)c1 [1-176] | 100 | 100 |
| Cc1cc(C(Oc2ccc(C#N)cc2)(C(F)(F)F)C(F)(F)F)cc(C)c1NC(=O)c1cccc(NC(=O)c2cccnc2Cl)c1 [1-180] | – | 100 |
| CSCCOC(c1cc(I)c(NC(=O)c2cccc(NC(=O)c3cccnc3Cl)c2)c(I)c1)(C(F)(F)F)C(F)(F)F [1-104] | – | 100 |
| Cc1cc(C(n2ccc(C(F)(F)F)n2)(C(F)(F)F)C(F)(F)F)cc(C)c1NC(=O)c1cccc(NC(=O)c2cccnc2F)c1 [2-98] | – | 100 |
| CCc1cc(C(Oc2ccnc(C(F)(F)F)c2)(C(F)(F)F)C(F)(F)F)cc(C)c1NC(=O)c1cccc(NC(=O)c2cccnc2Cl)c1 [1-112] | – | 100 |
| Cc1cc(C(Oc2ccnc(C(F)(F)F)c2)(C(F)(F)F)C(F)(F)F)cc(C)c1NC(=O)c1cccc(NC(=O)c2cccnc2Cl)c1 [1-111] | – | 100 |
| Cc1cc(C(Oc2ccc(Cl)cc2)(C(F)(F)F)C(F)(F)F)ccc1NC(=O)c1cccc(NC(=O)c2cccnc2Cl)c1 [1-201] | – | 100 |
| Cc1cc(C(n2ccc(C(Cl)Cl)n2)(C(F)(F)F)C(F)(F)F)cc(C)c1NC(=O)c1cccc(NC(=O)c2cccnc2Cl)c1 [2-106] | – | 100 |
| CCc1cc(C(OCC(F)(F)F)(C(F)(F)F)C(F)(F)F)cc(C)c1NC(=O)c1cccc(N)c1 [11-26] | – | 100 |
| CCCOC(c1cc(I)c(NC(=O)c2cccc(NC(=O)c3ccc(C)nc3Cl)c2)c(I)c1)(C(F)(F)F)C(F)(F)F [1-63] | – | 100 |
| Cc1cc(C(n2cc(I)c(C(F)(F)F)n2)(C(F)(F)F)C(F)(F)F)cc(C)c1NC(=O)c1cccc(NC(=O)c2cccnc2Cl)c1 [2-119] | 100 | – |
| CCc1cc(C(n2cc(Cl)cn2)(C(F)(F)F)C(F)(F)F)cc(C)c1NC(=O)c1cccc(NC(=O)c2cc(F)ccc2F)c1 [2-39] | – | 100 |
